Laboratory results published in US10011572B2, “Monocyclic isoxazolines as inhibitors of cholesterol ester transfer protein” (Merck Sharp & Dohme Corp., priority 2014, dated 2018).

What was measured:
[1] = torcetrapib and atorvastatin concomitantly compared with atorvastatin alone; cited from earlier work
[2] = anacetrapib with baseline statin therapy compared with patients treated with just a statin; cited from earlier work
[3] = Phase III outcomes trial, cited from earlier work
[4] = target: T1, endogenous CETP from serum (Homo sapiens, UniProt P11597); assay: RTA assay in 95% human serum (in vitro radioactive assay of CETP-catalyzed CE and TG transfer, endogenous CETP); type: biochemical; conditions: read-out: IC50 (nM) RTA with 95% HS
T1 construct: yielding a concentration of approximately 15 nM endogenous CETP in the assay; from tissue; host or cells: human serum
T1 sequence (P11597 18-493): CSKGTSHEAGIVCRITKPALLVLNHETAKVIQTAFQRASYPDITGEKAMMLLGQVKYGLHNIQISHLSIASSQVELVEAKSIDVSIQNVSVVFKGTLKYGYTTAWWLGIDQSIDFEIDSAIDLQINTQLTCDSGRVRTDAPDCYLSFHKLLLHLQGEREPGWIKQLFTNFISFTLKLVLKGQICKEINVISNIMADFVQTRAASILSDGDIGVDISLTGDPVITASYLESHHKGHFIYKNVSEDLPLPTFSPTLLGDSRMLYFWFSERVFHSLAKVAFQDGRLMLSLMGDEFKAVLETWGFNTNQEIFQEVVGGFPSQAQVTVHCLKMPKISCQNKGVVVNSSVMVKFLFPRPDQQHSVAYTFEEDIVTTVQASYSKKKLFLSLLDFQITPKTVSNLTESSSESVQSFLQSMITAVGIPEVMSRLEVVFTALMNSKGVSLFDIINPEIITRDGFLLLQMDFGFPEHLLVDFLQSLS
Description: In Vitro Radioactive Assays of CETP-Catalyzed CE and TG Transfer (RTA Assay)
Reagents and sources are: [3H] cholesteryl oleate (GE #TRK.886), [3H] Triolein (Perkin-Elmer NET-431), Butylated hydroxyl toluene (Aldrich, #D4740-4), DOPC (Sigma, # P6354), Sodium Bromide (Fisher scientific #S255-500), PEG 8000 (Fisher, #BP233-1), and human HDL (Intracel Corp #RP-036).
An in vitro assay for determining IC50's to identify compounds that inhibit CETP transfer activity is performed based on a modification of a published method (Morton and Zilversmit, (1981) A plasma inhibitor of triglyceride and cholesteryl ester transfer activities, J. Biol. Chem. 256(23), 11992-11995). The ability of inhibitors to alter CETP activity is performed using two different assays: one using recombinant CETP and one using an endogenous plasma source of CETP. Both assays measure the transfer of [3H] cholesteryl oleate or [3H] triolein from exogenous LDL to HDL.
Radiolabeled donor particles are generated by first combining 100 μl of 200 μM butylated hydroxyl toluene in CHCl3, 216 μL of 21.57 mM DOPC in EtOH, and either 500 μCi [3H]-triolein (Perkin Elmer #NET-431) or 500 μCi [3H]-cholesteryl oleate (GE #TRK886) in a glass tube. Reagents are mixed, dried under nitrogen, and then resuspended in 2 mL of 50 mM Tris, 27 μM EDTA at pH 7.4. After a brief vortex, the solution is sonicated until clear and mixed with 20 mL of fresh human serum. The mixture is incubated overnight at 37° C. The [3H] labeled LDL substrate is separated at 1.063 g/ml density by sequential ultracentrifugal flotation in NaBr according to the method of Havel, Eder, et al., 1955, and Chapman, Goldstein, et al., 1981. Once isolated the particles are dialyzed 3× in CETP buffer (50 mM Tris, pH 7.4, 100 mM NaCl, 1 mM EDTA). Human HDL is purchased from Intracel and used as the acceptor particles.
Transfer assays are performed in a 96-well v-bottom polypropylene plate. For the RTA using recombinant CETP (2% RTA), an assay cocktail is prepared with the final concentrations 128 μg/mL HDL, 20 nM rCETP, 2% human serum, and 1×CETP buffer. 1 μL of each test compound diluted in DMSO is added to 47 μL of assay cocktail per well and incubated at 37° C. for 1 hour. To initiate the transfer reaction, 2 μL radiolabeled LDL is added. After an additional 60 min of incubation at 37° C., the transfer action is terminated by precipitation of LDL with an equal volume of 20% WN PEG 8000. The plates are centrifuged at 2000 rpm for 30 minutes at 4° C. A 40 μL aliquot of the HDL-containing supernatant is transferred to a Packard Optiplate™ with 200 μL of MicroScint™ 20. After mixing, plates are counted by liquid scintillation. Counts present in the supernatant for blanks (wells containing only HDL acceptor, CETP buffer and DMSO) are subtracted from those containing test compounds and used to correct for non-specific transfer.
For the transfer assay using endogenous CETP from serum (95% RTA), the same procedure is used except that human serum is added such that a final concentration of serum of 95% of the total assay volume is achieved, yielding a concentration of approximately 15 nM endogenous CETP in the assay. This is then combined with HDL and CETP buffer and the reaction proceeds as above and is terminated as described.
Comparison of the counts of samples with inhibitors to an uninhibited (DMSO only) positive control yield a percent inhibition. A plot of percent inhibition vs. log of inhibitor concentration, fit to a Sigmoidal 4 parameter equation is used to calculate IC50.
Starting materials are commercially available or are made using known procedures or as shown below. The examples may be synthesized according to the general schemes provided below and by using the synthetic intermediates that are described. The data reported for the examples below were obtained using the RTA assay in 95% human serum.

Compound: CCOC(=O)N1c2ccc(C(F)(F)F)cc2[C@@H](N(Cc2cc(C(F)(F)F)cc(C(F)(F)F)c2)C(=O)OC)C[C@H]1CC [torcetrapib]
- mortality [1]: higher incidence of mortality

Compound: COc1cc(F)c(C(C)C)cc1-c1ccc(C(F)(F)F)cc1CN1C(=O)O[C@H](c2cc(C(F)(F)F)cc(C(F)(F)F)c2)[C@@H]1C [anacetrapib]
- decrease of LDL-C [2]: 40%
- increase of HDL-C [2]: 138%

Compound: CCC(CC)CC1(C(=O)Nc2ccccc2SC(=O)C(C)C)CCCCC1 [dalcetrapib]
- clinical benefit (interim data) ([3]; terminated early): did not show a clinical benefit
- safety issues [3]: no safety issues detected

Compound: COc1ccc(-c2cc(-c3ccc(C(=O)O)cc3C)ccc2OC)c(CC2=NO[C@H](c3cc(C(F)(F)F)cc(C(F)(F)F)c3)C2)n1 [Example 11, (S)-3′-[2-({5-[3,5-bis(trifluoromethyl)phenyl]-4,5-dihydroisoxazol-3-yl}methyl)-6-methoxypyridin-3-yl]-4′-methoxy-2-methylbiphenyl-4-carboxylic acid]
- IC50 [4]: 176 nM
